Test results published in patent US20250171430A1, “PYRAZOLYL COMPOUNDS AS KV7 CHANNEL ACTIVATORS” (Biohaven Therapeutics Ltd., priority 2022, published 2025).

Biological target: T1, Kv7.2/7.3 (Homo sapiens, UniProt O43525+O43526)
T1 construct: Kv7.2 tetracycline-induced, Kv7.3 constitutive
Experiment: Kv7.2/7.3 Activation Assay (Thallium Flux Assay)
Format: cell-based
Conditions: hKV7.2/7.3 cell line; test compound at single concentration of 10 μM; fluorescence at 90 sec normalized to positive control (retigabine, 30 μM)
Method in brief: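 Single-point activity at 10 μM (0.1% DMSO, HEPES-buffered saline, pH 7.4) was scored from fluorescence at 90 s relative to 30 μM retigabine. Categories were none <0.15, moderate 0.15-0.7 and high >0.7. Thallium influx after stimulus addition was followed with FluxOR II Green dye in hKv7.2/7.3 cells, Kv7.2 expressed under overnight tetracycline (10 ng/mL) induction.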

Compound | Kv7.2/7.3 Activity
Cn1nc(NC(=O)C23CC(C(F)(F)F)(C2)C3)c(C2CCC2)c1-c1ccc(Cl)s1 [Compound 232, N-(5-(5-chlorothiophen-2-yl)-4-cyclobutyl-1-methyl-1H-pyrazol-3-yl)-3-(trifluoromethyl)bicyclo[1.1.1]pentane-1-carboxamide] | ++ (“++” High Activity ≥ 0.7)
CO[C@@H](CC(=O)Nc1nn(C)c(-c2ccc(Cl)s2)c1C1CCC1)C(F)(F)F [Compound 233, (S)-N-(5-(5-chlorothiophen-2-yl)-4-cyclobutyl-1-methyl-1H-pyrazol-3-yl)-4,4,4-trifluoro-3-methoxybutanamide] | ++ (“++” High Activity ≥ 0.7)
C[C@@H](C(=O)Nc1nn(C)c(-c2ccc(Cl)s2)c1C1CCC1)C1(C(F)(F)F)CC1 [Compound 234, (R)-N-(5-(5-chlorothiophen-2-yl)-4-cyclobutyl-1-methyl-1H-pyrazol-3-yl)-2-(1-(trifluoromethyl)cyclopropyl)propanamide] | ++ (“++” High Activity ≥ 0.7)
Cn1nc(NC(=O)N[C@H]2CCC(F)(F)C2)c(C2CCC2)c1-c1ccc(F)cc1 [Compound 237, (S)-1-(4-cyclobutyl-5-(4-fluorophenyl)-1-methyl-1H-pyrazol-3-yl)-3-(3,3-difluorocyclopentyl)urea] | + (“+” Moderate Activity 0.15-0.7)
Cn1nc(NC(=O)N[C@@H]2CCC(F)(F)C2)c(C2CCC2)c1-c1ccc(F)cc1 [Compound 238, (R)-1-(4-cyclobutyl-5-(4-fluorophenyl)-1-methyl-1H-pyrazol-3-yl)-3-(3,3-difluorocyclopentyl)urea] | + (“+” Moderate Activity 0.15-0.7)
Cn1nc(NC(=O)NCC(F)(F)F)c(C2CCC2)c1-c1ccc(F)cc1 [Compound 240, 1-(4-cyclobutyl-5-(4-fluorophenyl)-1-methyl-1H-pyrazol-3-yl)-3-(2,2,2-trifluoroethyl)urea] | + (“+” Moderate Activity 0.15-0.7)
Cn1nc(NC(=O)NC2CC3(C2)CC(F)(F)C3)c(C2CCC2)c1-c1ccc(F)cc1 [Compound 244, 1-(4-cyclobutyl-5-(4-fluorophenyl)-1-methyl-1H-pyrazol-3-yl)-3-(6,6-difluorospiro[3.3]heptan-2-yl)urea] | − (“−” No Activity < 0.15)
Cn1nc(NC(=O)NC(C)(C)C)c(C2CCC2)c1-c1ccc(F)cc1 [Compound 245, 1-(tert-butyl)-3-(4-cyclobutyl-5-(4-fluorophenyl)-1-methyl-1H-pyrazol-3-yl)urea] | + (“+” Moderate Activity 0.15-0.7)
COCCNC(=O)Nc1nn(C)c(-c2ccc(F)cc2)c1C1CCC1 [Compound 246, 1-(4-cyclobutyl-5-(4-fluorophenyl)-1-methyl-1H-pyrazol-3-yl)-3-(2-methoxyethyl)urea] | − (“−” No Activity < 0.15)
Cn1nc(NC(=O)C2CC(F)(F)C2)c(C2CCC2)c1-c1ccc(C(C)(C)O)s1 [Compound 247, N-(4-cyclobutyl-5-(5-(2-hydroxypropan-2-yl)thiophen-2-yl)-1-methyl-1H-pyrazol-3-yl)-3,3-difluorocyclobutane-1-carboxamide] | − (“−” No Activity < 0.15)
Cn1nc(NC(=O)C2CSC2)c(C2CCC2)c1-c1ccc(Cl)s1 [Compound 248, N-(5-(5-chlorothiophen-2-yl)-4-cyclobutyl-1-methyl-1H-pyrazol-3-yl)thietane-3-carboxamide] | ++ (“++” High Activity ≥ 0.7)
Cn1nc(NC(=O)C2CC3(C2)CC(F)(F)C3)c(C2CCC2)c1-c1ccc(Cl)s1 [Compound 249, N-(5-(5-chlorothiophen-2-yl)-4-cyclobutyl-1-methyl-1H-pyrazol-3-yl)-6,6-difluorospiro[3.3]heptane-2-carboxamide] | ++ (“++” High Activity ≥ 0.7)
Cn1nc(NC(=O)NCC(C)(C)C)c(C2CCC2)c1-c1ccc(F)cc1 [Compound 251, 1-(4-cyclobutyl-5-(4-fluorophenyl)-1-methyl-1H-pyrazol-3-yl)-3-neopentylurea] | + (“+” Moderate Activity 0.15-0.7)
Cn1nc(NC(=O)NC2(C)COC2)c(C2CCC2)c1-c1ccc(F)cc1 [Compound 252, 1-(4-cyclobutyl-5-(4-fluorophenyl)-1-methyl-1H-pyrazol-3-yl)-3-(3-methyloxetan-3-yl)urea] | + (“+” Moderate Activity 0.15-0.7)
Cn1nc(NC(=O)[C@@H]2C[C@@H]2F)c(C2CCC2)c1-c1ccc(F)cc1 [Compound 253, (1S,2S)-N-(4-cyclobutyl-5-(4-fluorophenyl)-1-methyl-1H-pyrazol-3-yl)-2-fluorocyclopropane-1-carboxamide] | − (“−” No Activity < 0.15)
Cn1nc(NC(=O)C[C@@H]2CC(F)(F)C2(F)F)c(C2CCC2)c1-c1ccc(F)cn1 [Compound 254, (R)-N-(4-cyclobutyl-5-(5-fluoropyridin-2-yl)-1-methyl-1H-pyrazol-3-yl)-2-(2,2,3,3-tetrafluorocyclobutyl)acetamide] | ++ (“++” High Activity ≥ 0.7)
Cn1nc(NC(=O)C[C@@H]2CC(F)(F)C2(F)F)c(C2CCC2)c1-c1cc(F)cc(F)c1 [Compound 256, (R)-N-(4-cyclobutyl-5-(3,5-difluorophenyl)-1-methyl-1H-pyrazol-3-yl)-2-(2,2,3,3-tetrafluorocyclobutyl)acetamide] | ++ (“++” High Activity ≥ 0.7)
Cn1nc(NC(=O)C2CSC2)c(C2CCC2)c1-c1cc(F)cc(F)c1 [Compound 257, N-(4-cyclobutyl-5-(3,5-difluorophenyl)-1-methyl-1H-pyrazol-3-yl)thietane-3-carboxamide] | ++ (“++” High Activity ≥ 0.7)
Cn1nc(NC(=O)CC2(C(F)F)CC2)c(C2CCC2)c1-c1cc(F)cc(F)c1 [Compound 259, N-(4-cyclobutyl-5-(3,5-difluorophenyl)-1-methyl-1H-pyrazol-3-yl)-2-(1-(difluoromethyl)cyclopropyl)acetamide] | ++ (“++” High Activity ≥ 0.7)

Other lines, results leading:

Kv7.2/7.3 Activity | Compound
++ (“++” High Activity ≥ 0.7) | Cn1nc(NC(=O)C[C@@H]2CC(F)(F)C2(F)F)c(C2CCC2)c1-c1ccc(F)c(F)c1 [Compound 235, (R)-N-(4-cyclobutyl-5-(3,4-difluorophenyl)-1-methyl-1H-pyrazol-3-yl)-2-(2,2,3,3-tetrafluorocyclobutyl)acetamide]
++ (“++” High Activity ≥ 0.7) | Cn1nc(NC(=O)C[C@H]2CC(F)(F)C2(F)F)c(C2CCC2)c1-c1ccc(F)c(F)c1 [Compound 236, (S)-N-(4-cyclobutyl-5-(3,4-difluorophenyl)-1-methyl-1H-pyrazol-3-yl)-2-(2,2,3,3-tetrafluorocyclobutyl)acetamide]
− (“−” No Activity < 0.15) | Cc1nnc(-c2c(C3CCC3)c(NC(=O)CC3CC(F)(F)C3)nn2C)s1 [Compound 239, N-(4-cyclobutyl-1-methyl-5-(5-methyl-1,3,4-thiadiazol-2-yl)-1H-pyrazol-3-yl)-2-(3,3-difluorocyclobutyl)acetamide]
++ (“++” High Activity ≥ 0.7) | Cn1nc(NC(=O)OC2CC(F)(F)C2)c(C2CCC2)c1-c1ccc(F)cc1 [Compound 241, 3,3-difluorocyclobutyl (4-cyclobutyl-5-(4-fluorophenyl)-1-methyl-1H-pyrazol-3-yl)carbamate]
+ (“+” Moderate Activity 0.15-0.7) | Cn1nc(NC(=O)NCC2CC(F)(F)C2)c(C2CCC2)c1-c1ccc(F)cc1 [Compound 242, 1-(4-cyclobutyl-5-(4-fluorophenyl)-1-methyl-1H-pyrazol-3-yl)-3-((3,3-difluorocyclobutyl)methyl)urea]
++ (“++” High Activity ≥ 0.7) | Cn1nc(NC(=O)OCC2CC(F)(F)C2)c(C2CCC2)c1-c1ccc(F)cc1 [Compound 243, (3,3-difluorocyclobutyl)methyl (4-cyclobutyl-5-(4-fluorophenyl)-1-methyl-1H-pyrazol-3-yl)carbamate]
++ (“++” High Activity ≥ 0.7) | Cn1nc(NC(=O)CC2CC(F)(F)C2)c(C2CCC2)c1-c1ccc(Cl)c(F)c1 [Compound 250, N-(5-(4-chloro-3-fluorophenyl)-4-cyclobutyl-1-methyl-1H-pyrazol-3-yl)-2-(3,3-difluorocyclobutyl)acetamide]
++ (“++” High Activity ≥ 0.7) | Cn1nc(NC(=O)C2CC(F)(F)C2)c(C2CCC2)c1-c1cc(F)cc(F)c1 [Compound 255, N-(4-cyclobutyl-5-(3,5-difluorophenyl)-1-methyl-1H-pyrazol-3-yl)-3,3-difluorocyclobutane-1-carboxamide]
++ (“++” High Activity ≥ 0.7) | Cn1nc(NC(=O)CC2CC(F)(F)C2)c(C2CCC2)c1-c1cc(F)cc(F)c1 [Compound 258, N-(4-cyclobutyl-5-(3,5-difluorophenyl)-1-methyl-1H-pyrazol-3-yl)-2-(3,3-difluorocyclobutyl)acetamide]
++ (“++” High Activity ≥ 0.7) | Cn1nc(NC(=O)OC2CC(F)(F)C2)c(C2CCC2)c1-c1ccc(Cl)c(F)c1 [Compound 260, 3,3-difluorocyclobutyl (5-(4-chloro-3-fluorophenyl)-4-cyclobutyl-1-methyl-1H-pyrazol-3-yl)carbamate]
++ (“++” High Activity ≥ 0.7) | Cn1nc(NC(=O)C2CC(F)(F)C2)c(C2CCC2)c1-c1cc(F)c(F)c(F)c1 [Compound 261, N-(4-cyclobutyl-1-methyl-5-(3,4,5-trifluorophenyl)-1H-pyrazol-3-yl)-3,3-difluorocyclobutane-1-carboxamide]
++ (“++” High Activity ≥ 0.7) | Cn1nc(NC(=O)C[C@@H]2CC(F)(F)C2(F)F)c(C2CCC2)c1-c1cc(F)c(F)c(F)c1 [Compound 262, (R)-N-(4-cyclobutyl-1-methyl-5-(3,4,5-trifluorophenyl)-1H-pyrazol-3-yl)-2-(2,2,3,3-tetrafluorocyclobutyl)acetamide]
